Data published in patent US8415309B2, “Bicyclic nucleosides and nucleotides as therapeutic agents” (priority 2009, dated 2013).
Where two headings read alike, the source gives them in different places.

Experiments:
[1] = test system: HCV RNA replication (HCV subgenomic replicon in MP-1 cells); experiment: Cell-Based HCV RNA Replication Luciferase Reporter Assay; conditions: Hepatitis C virus; for inhibition at 50 µM: read-out: Inhibition at 50 μM (%); for EC50: 72 h
[2] = Cytotoxicity (CellTiter-Blue / MTT) run with the replicon assay; type: cell-based; conditions: human, MP-1 cells
Description: The assay outline includes the following steps on Day 1: (1) Plate cells at a density of 10,000 cells/well of a 96 well plate and incubate 37° C.; (2) Make compound dilutions; (3) Add compound dilutions to cells; (4) Incubate for 72 h. The assay includes the following steps on Day 4: (1) Perform Cell titer blue assay for cytotoxicity (the assay is based on the reduction of resazurin (cell titer blue) into a fluorescent product, resorufin, in metabolically active cells, and the assay can be duplexed with the assay used for HCV replicon luciferase reporter assay); (2) Perform luciferase assay with the Bright-Glo luciferase substrate (Promega) and read luminescence; (3) Process results.
Under the Alamar blue assay protocol, the assay plates are removed from a 37° C. incubator, and 20 μl of CellTiter-Blue™ Reagent is added. The cells are incubated in the 37° C. incubator for 3 h. The assay plates are shaken for 10 sec and fluorescence at 560Ex/590Em nm is recorded. The results are expressed relative to the 100% untreated control using the following equation: […]=100−[(RFUcompound−RFUblank/RFUuntreated−RFUblank)×100]. Alternatively, under the MTT protocol the extent of cytotoxicity is determined via metabolism of the vital dye 3-(4,5-dimethylthiaxol-2-yl)-2,5-diphenyltetrazolium bromide (MTT). MTT (1 mg/ml) was added to each well and plates incubated for 3 hours incubation at 37° C. Wells were aspirated, iso-propanol […] was added and absorbance values read at 540/690 nm. Compound concentrations that developed 50% cytotoxicity (CC50) were calculated using non-linear regression analysis.

Pharmacokinetics in rats = type: in vivo, male Sprague-Dawley rats; conditions: Rat
Description: (§1) The pharmacokinetic properties of Compound 9 were determined in male Sprague-Dawley rats, beagle dogs and cynomolgus monkeys (n=3 in each species) with an oral dose of 5 mg/kg and iv dose of 2 mg/kg. PK parameters were analyzed using the WinNonlin noncompartmental model.

[3] = Pharmacokinetics in monkeys; type: in vivo, cynomolgus monkeys
Description: as §1

Pharmacokinetics in dogs = type: in vivo, beagle dogs; conditions: Dog
Description: as §1

Cross-species PK summary = type: in vivo, rats, monkeys and dogs; conditions: Sprague-Dawley (rat), beagle (dog), cynomolgus (monkey), plasma
Description: as §1

[4] = MP-1 cells, luciferase readout, read-out: EC50
[5] = oral 5 mg/kgBW, read-out: Cmax (maximum concentration observed following the oral dose)

Row | Structure (SMILES) | inhibition at 50 µM ([1]; 50 μM compound) | EC50 [1, 4] | CC50 at 72 h [2] | further results
1 | C[C@@]1(O)[C@H](O)[C@@H](CO)O[C@H]1c1ccc2c(N)ncnn12 [Compound 9, 4-amino-7-(2-C-methyl-β-D-ribofuranosyl)-pyrrolo[2,1-f][1,2,4]triazine] | 99% | 1.3 µM | 365 µM | Cmax (Pharmacokinetics in rats; [5]): 2380 nM; CL (total clearance) (Pharmacokinetics in rats; single iv 2 mg/kgBW): 18.8 mL/min/kgBW; Vss (steady state volume distribution) (Pharmacokinetics in rats; single iv 2 mg/kgBW): 4.19 L/kgBW; bioavailability (Pharmacokinetics in rats; male, Sprague-Dawley, plasma, 5 mg/kg, oral 5 mg/kgBW vs iv 2 mg/kgBW, read-out: F % (oral bioavailability)): 83%; AUC (Pharmacokinetics in rats; male, Sprague-Dawley, plasma, 5 mg/kg, single iv (2 mg/kgBW) or oral dose (5 mg/kgBW), read-out: AUC (area under the curve of plasma exposure)): 13 µM·h; half-life (Pharmacokinetics in rats; male, Sprague-Dawley, plasma, single iv (2 mg/kgBW) or oral dose (5 mg/kgBW), read-out: t1/2 (terminal elimination half-life) (converted)): 4 h; CL (total clearance) ([3]; Monkey, single iv 2 mg/kgBW): 20.5 mL/min/kgBW; Vss (steady state volume distribution) ([3]; Monkey, single iv 2 mg/kgBW): 2.43 L/kgBW; bioavailability ([3]; cynomolgus monkey, plasma, 5 mg/kg, oral 5 mg/kgBW vs iv 2 mg/kgBW, read-out: F % (oral bioavailability)): 33%; Cmax ([3]; cynomolgus monkey, plasma, 5 mg/kg, oral 5 mg/kgBW, read-out: Cmax (maximum concentration observed following the oral dose)): 820 nM; AUC ([3]; cynomolgus monkey, plasma, 5 mg/kg, single iv (2 mg/kgBW) or oral dose (5 mg/kgBW), read-out: AUC (area under the curve of plasma exposure)): 5 µM·h; half-life ([3]; cynomolgus monkey, plasma, single iv (2 mg/kgBW) or oral dose (5 mg/kgBW), read-out: t1/2 (terminal elimination half-life) (converted)): 4.3 h; Cmax (Pharmacokinetics in dogs; [5]): 8360 nM; CL (total clearance) (Pharmacokinetics in dogs; single iv 2 mg/kgBW): 11.4 mL/min/kgBW; Vss (steady state volume distribution) (Pharmacokinetics in dogs; single iv 2 mg/kgBW): 5.22 L/kgBW; bioavailability (Pharmacokinetics in dogs; beagle, plasma, 5 mg/kg, oral 5 mg/kgBW vs iv 2 mg/kgBW, read-out: F % (oral bioavailability)): 96%; AUC (Pharmacokinetics in dogs; beagle, plasma, 5 mg/kg, single iv (2 mg/kgBW) or oral dose (5 mg/kgBW), read-out: AUC (area under the curve of plasma exposure)): 24.9 µM·h; half-life (Pharmacokinetics in dogs; beagle, plasma, single iv (2 mg/kgBW) or oral dose (5 mg/kgBW), read-out: t1/2 (terminal elimination half-life) (converted)): 7.6 h; bioavailability (Cross-species PK summary; po, 5 mg/kg, range over rat, monkey, dog, read-out: oral bioavailability across species): 33 to 96%; half-life (Cross-species PK summary; range over preclinical animal species (rat, monkey, dog), read-out: plasma / elimination half-life across species): 4 to 7.6 h
2 | C[C@@]1(O)[C@H](O)[C@@H](CO)O[C@H]1c1cc(F)c2c(N)ncnn12 [Compound 11, 4-amino-5-fluoro-7-(2-C-methyl-β-D-ribofuranosyl)-pyrrolo[2,1-f][1,2,4]triazine] | 97% | 3.1 µM | > 100 µM | 
3 | C[C@@]1(O)[C@H](O)[C@@H](CO)O[C@H]1c1cc(Cl)c2c(N)ncnn12 [Compound 12, 4-amino-5-chloro-7-(2-C-methyl-β-D-ribofuranosyl)-pyrrolo[2,1-f][1,2,4]triazine] | 99% | 0.22 µM | 6.5 µM | 
4 | C[C@@]1(O)[C@H](O)[C@@H](CO)O[C@H]1c1cc(I)c2c(N)ncnn12 [Compound 13, 4-amino-5-iodo-(2-C-methyl-β-D-ribofuranosyl)-pyrrolo[2,1-f][1,2,4]triazine] | 97% |  |  | 
5 | C[C@@]1(O)[C@H](O)[C@@H](CO)O[C@H]1c1cc(C#N)c2c(N)ncnn12 [Compound 14, 4-amino-7-(2-C-methyl-β-D-ribofuranosyl)-pyrrolo[2,1-f][1,2,4]triazine-5-carbonitrile] | 100% | 1.4 µM | 18.8 µM | 
6 | C[C@@]1(O)[C@H](O)[C@@H](CO)O[C@H]1c1cc(C(N)=O)c2c(N)ncnn12 [Compound 15, 4-amino-7-(2-C-methyl-β-D-ribofuranosyl)-pyrrolo[2,1-f][1,2,4]triazine-5-carboxylic acid amide] | 100% | 0.0062 µM | 0.37 µM | 
7 | C[C@@]1(O)[C@H](O)[C@@H](CO)O[C@H]1c1cc(C#C[Si](C)(C)C)c2c(N)ncnn12 [Compound 16, 4-amino-5-trimethylsilanylethynyl-7-(2-C-methyl-β-D-ribofuranosyl)-pyrrolo[2,1-f][1,2,4]triazine] | 99% |  |  | 
8 | C#Cc1cc([C@@H]2O[C@H](CO)[C@@H](O)[C@@]2(C)O)n2ncnc(N)c12 [Compound 17, 4-Amino-5-ethynyl-7-(2-C-methyl-β-D-ribofuranosyl)-pyrrolo[2,1-f][1,2,4]triazine] | 98% |  |  | 
9 | C[C@@]1(O)[C@H](O)[C@@H](CO)O[C@H]1c1ccc2c(N)nc(N)nn12 [Compound 20, 2,4-diamino-7-(2-C-methyl-β-D-ribofuranosyl)-pyrrolo[2,1-f][1,2,4]triazine] | 19% |  |  | 
10 | C[C@@]1(O)[C@H](O)[C@@H](CO)O[C@H]1c1cc(-c2ncco2)c2c(N)ncnn12 [Compound 22, 4-amino-5-oxazol-2-yl-7-(2-C-methyl-β-D-ribofuranosyl)-pyrrolo[2,1-f][1,2,4]triazine] | 95% |  |  | 
11 | C[C@@]1(O)[C@H](O)[C@@H](CO)O[C@H]1c1c(F)cc2c(N)ncnn12 [Compound 32, 4-Amino-6-fluoro-7-(2-C-methyl-β-D-ribofuranosyl)-pyrrolo[2,1-f][1,2,4]triazin-7-yl] | 23% |  |  | 
12 | CC(C)(C)C(=O)OCOP(=O)(OCOC(=O)C(C)(C)C)OC[C@H]1O[C@@H](c2ccc3c(N)ncnn23)[C@](C)(O)[C@@H]1O [Compound 34, Bis-POM (pivaloyloxymethyl) prodrug of 4-amino-7-(2-C-methyl-β-D-ribofuranosyl)-pyrrolo[2,1-f][1,2,4]triazine] |  |  | 45 µM | EC50 [1]: 3.8 µM; inhibition at 50 µM [1]: 100%
13 | C[C@@]1(O)[C@H](O)[C@@H](CO)O[C@H]1c1cc(C2=NCCN2)c2c(N)ncnn12 [Compound 35, 4-amino-5-imidazoline-7-(2-C-methyl-β-D-ribofuranosyl)-pyrrolo[2,1-f][1,2,4]triazine] | 99% |  |  | 
14 | C[C@@]1(O)[C@H](O)[C@@H](CO)O[C@H]1c1cc(-c2ncc[nH]2)c2c(N)ncnn12 [Compound 38, 4-amino-5-imidazole-7-(2-C-methyl-β-D-ribofuranosyl)-pyrrolo[2,1-f][1,2,4]triazine] | 99% |  |  | 
